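Test compounds were applied to cells in 96-well plates for 48 hours at 5 doses. At the GI50, growth is halved.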 Active and inactive are the calls of the source. Rule as the data show it: active = GI50 up to about 1.1 µM and inactive = higher.
Key:
Experiment in all cases: DTP human tumour cell line panel, 48 h
A498 = tested on: A498
EKVX = tested on: EKVX
HCT-116 = tested on: HCT-116
Hs-578T = tested on: Hs-578T
MDA-MB-231 = tested on: MDA-MB-231
MOLT-4 = tested on: MOLT-4
Malme-3M = tested on: Malme-3M
NCI-H23 = tested on: NCI-H23
NCI-H460 = tested on: NCI-H460
NCI/ADR-RES = tested on: NCI/ADR-RES
OVCAR-3 = tested on: OVCAR-3
OVCAR-4 = tested on: OVCAR-4
OVCAR-8 = tested on: OVCAR-8
RXF 393 = tested on: RXF 393
SF-268 = tested on: SF-268
SK-MEL-28 = tested on: SK-MEL-28
SK-MEL-2 = tested on: SK-MEL-2
SW-620 = tested on: SW-620
TK-10 = tested on: TK-10
UACC-62 = tested on: UACC-62

| SMILES | GI50 (A498) | GI50 (EKVX) | GI50 (HCT-116) | GI50 (Hs-578T) | GI50 (MDA-MB-231) | GI50 (MOLT-4) | GI50 (Malme-3M) | GI50 (NCI-H23) | GI50 (NCI-H460) | GI50 (NCI/ADR-RES) | GI50 (OVCAR-3) | GI50 (OVCAR-4) | GI50 (OVCAR-8) | GI50 (RXF 393) | GI50 (SF-268) | GI50 (SK-MEL-28) | GI50 (SK-MEL-2) | GI50 (SW-620) | GI50 (TK-10) | GI50 (UACC-62) |
| --- | --- | --- | --- | --- | --- | --- | --- | --- | --- | --- | --- | --- | --- | --- | --- | --- | --- | --- | --- | --- |
| OCCCNCc1ccncc1 | > 100 µM (inactive) | > 100 µM (inactive) | > 100 µM (inactive) | > 100 µM (inactive) | > 100 µM (inactive) | > 100 µM (inactive) | > 100 µM (inactive) | > 100 µM (inactive) | > 100 µM (inactive) | > 100 µM (inactive) | > 100 µM (inactive) | > 100 µM (inactive) | > 100 µM (inactive) | > 100 µM (inactive) | > 100 µM (inactive) | > 100 µM (inactive) | > 100 µM (inactive) | > 100 µM (inactive) | > 100 µM (inactive) | > 100 µM (inactive) |
| C[N+]1(C)C2Cc3ccccc3C1Cc1ccccc12 | > 100 µM (inactive) | > 100 µM (inactive) | > 100 µM (inactive) | > 100 µM (inactive) | > 100 µM (inactive) | > 100 µM (inactive) | > 100 µM (inactive) | > 100 µM (inactive) | > 100 µM (inactive) | > 100 µM (inactive) | 90.8 µM (inactive) | > 100 µM (inactive) | > 100 µM (inactive) | > 100 µM (inactive) | > 100 µM (inactive) | > 100 µM (inactive) | > 100 µM (inactive) | > 100 µM (inactive) | > 100 µM (inactive) | 71.6 µM (inactive) |
| CC1=C(CCC(C)CO)O[C@H]2C[C@H]3[C@@H]4CC[C@H]5C[C@@H](O)CC[C@]5(C)[C@H]4CC(=O)[C@]3(C)[C@@H]12 (stereo not given in full) | 20.3 µM (inactive) | 29.9 µM (inactive) | 17.5 µM (inactive) | 17.1 µM (inactive) | 18.1 µM (inactive) | 3.61 µM (inactive) | 19.1 µM (inactive) | 14.9 µM (inactive) | 6.87 µM (inactive) | 9.48 µM (inactive) | 4.94 µM (inactive) | 25.2 µM (inactive) | 11.7 µM (inactive) | 29.1 µM (inactive) | 19.1 µM (inactive) | 22.1 µM (inactive) | 11.7 µM (inactive) | 35.6 µM (inactive) | 19.8 µM (inactive) | 6.17 µM (inactive) |
| Cc1ccc(/N=N/c2ccc(O)c(CN(C)C)c2)cc1C | 22.3 µM (inactive) | 20.6 µM (inactive) | 36.3 µM (inactive) | 16.4 µM (inactive) | 16.3 µM (inactive) | 16.6 µM (inactive) | 19.1 µM (inactive) | 70.3 µM (inactive) | 19.1 µM (inactive) | 16 µM (inactive) | 15.6 µM (inactive) | 43.4 µM (inactive) | 37.2 µM (inactive) | 17.5 µM (inactive) | 27.9 µM (inactive) | 5.47 µM (inactive) | 16.2 µM (inactive) | 33.6 µM (inactive) | 16.1 µM (inactive) | 17.1 µM (inactive) |
| CCN1C[C@]2(C)CC[C@H](OC)C34C5C[C@@H]6[C@@H](OC)C[C@@](OC)(C5[C@H]6OCc5ccccc5)C(C13)[C@H](OC(C)=O)[C@@H]42 (stereo not given in full) | > 100 µM (inactive) | > 100 µM (inactive) | > 100 µM (inactive) | > 100 µM (inactive) | > 100 µM (inactive) | 73.6 µM (inactive) | > 100 µM (inactive) | > 100 µM (inactive) | 59.8 µM (inactive) | > 100 µM (inactive) | 64.3 µM (inactive) | > 100 µM (inactive) | > 100 µM (inactive) | > 100 µM (inactive) | > 100 µM (inactive) | > 100 µM (inactive) | > 100 µM (inactive) | > 100 µM (inactive) | > 100 µM (inactive) | > 100 µM (inactive) |
| CCCCCCCC(=O)OC[n+]1cccc(-c2c(COC(=O)NC(C)C)c(COC(=O)NC(C)C)c3n2CCC3)c1 | 35.3 µM (inactive) | > 100 µM (inactive) | 50 µM (inactive) | > 100 µM (inactive) | > 100 µM (inactive) | 20.1 µM (inactive) | > 100 µM (inactive) | 61.7 µM (inactive) | 46.1 µM (inactive) | > 100 µM (inactive) | > 100 µM (inactive) | > 100 µM (inactive) | 82 µM (inactive) | 44.2 µM (inactive) | > 55.8 µM (inactive) | > 100 µM (inactive) | > 100 µM (inactive) | > 50.5 µM (inactive) | > 100 µM (inactive) | 38.1 µM (inactive) |
| O=S(=O)(NC1OCCCC1I)c1ccccc1 (stereo not given) | > 100 µM (inactive) | > 100 µM (inactive) | > 100 µM (inactive) | > 100 µM (inactive) | > 100 µM (inactive) | > 100 µM (inactive) | > 100 µM (inactive) | > 100 µM (inactive) | > 100 µM (inactive) | > 100 µM (inactive) | > 100 µM (inactive) | 89.7 µM (inactive) | > 100 µM (inactive) | > 100 µM (inactive) | > 100 µM (inactive) | > 100 µM (inactive) | > 100 µM (inactive) | > 100 µM (inactive) | > 100 µM (inactive) | > 100 µM (inactive) |
| CC(=O)Nc1ccc2c3c(cc(O)c2c1)N(C(=O)CCCCCC(=O)N1CC(CCl)c2c1cc(O)c1cc(NC(C)=O)ccc21)CC3CCl (stereo not given) | 0.0109 µM (active) | 0.193 µM (active) | 0.0101 µM (active) | 0.0362 µM (active) | 0.0301 µM (active) | < 0.01 µM (active) | 0.0125 µM (active) | < 0.01 µM (active) | < 0.01 µM (active) | 1.38 µM (inactive) | 0.0172 µM (active) | 0.181 µM (active) | < 0.0104 µM (active) | 0.0152 µM (active) | < 0.01 µM (active) | 0.0547 µM (active) | 0.0147 µM (active) | 0.13 µM (active) | 0.169 µM (active) | < 0.01 µM (active) |
| Cn1ncc(NCCn2cnc3c2c(=O)n(C)c(=O)n3C)c(Cl)c1=O | > 100 µM (inactive) | > 100 µM (inactive) | > 100 µM (inactive) | > 100 µM (inactive) | > 100 µM (inactive) | > 100 µM (inactive) | > 100 µM (inactive) | > 100 µM (inactive) | > 100 µM (inactive) | > 100 µM (inactive) | > 100 µM (inactive) | > 100 µM (inactive) | > 100 µM (inactive) | > 100 µM (inactive) | > 100 µM (inactive) | > 100 µM (inactive) | > 100 µM (inactive) | > 100 µM (inactive) | > 100 µM (inactive) | > 100 µM (inactive) |
| NC(=S)Nc1nc(=S)[nH]c2c1SC1=N/C(=C\c3ccco3)C(=O)N12 | > 100 µM (inactive) | 59 µM (inactive) | > 96.2 µM (inactive) | > 100 µM (inactive) | > 100 µM (inactive) | 44.1 µM (inactive) | 44.7 µM (inactive) | > 100 µM (inactive) | 68.7 µM (inactive) | > 100 µM (inactive) | > 89.7 µM (inactive) | 61.8 µM (inactive) | > 100 µM (inactive) | > 100 µM (inactive) | > 100 µM (inactive) | > 100 µM (inactive) | > 83.4 µM (inactive) | > 100 µM (inactive) | > 100 µM (inactive) | > 100 µM (inactive) |
| COc1cc(C2C3=C(COC3=O)Oc3cc4c(cc32)OCO4)ccc1O (stereo not given) | 0.668 µM (active) | 1.05 µM (active) | 0.448 µM (active) | 0.329 µM (active) | 0.818 µM (active) | 0.543 µM (active) | 0.174 µM (active) | 0.65 µM (active) | 0.308 µM (active) | 0.242 µM (active) | 0.189 µM (active) | 0.321 µM (active) | 0.69 µM (active) | 0.306 µM (active) | 2.07 µM (inactive) | 0.847 µM (active) | 0.543 µM (active) | 0.329 µM (active) | > 100 µM (inactive) | 0.356 µM (active) |
